# Data from ChEMBL document CHEMBL3779895, “Antimycobacterial activity of rhodamine 3,4-HPO iron chelators against Mycobacterium avium: analysis of the contribution of functional groups and of chelator's combination with ethambutol” (Medchemcomm, 2015).
# The source made the active and inactive calls. No cut-off for these calls is given here.
# Legend:
# Mycobacterium avium [1] = assay: Antimycobacterial activity against Mycobacterium avium 2447 Smt infected in BALB/c mice BMDM assessed as bacterial growth inhibition upto 20 uM after 5 days; type: functional, organism-based
# Mycobacterium avium [2] = assay: Antimycobacterial activity against Mycobacterium avium 2447 Smt infected in BALB/c mice BMDM assessed as bacterial growth inhibition at 10 uM after 5 days; type: functional, organism-based
smiles,measurement,setting,value
Cc1cc(O)c(O)c(CNC(=O)CCC(CCC(=O)NCc2c(O)c(O)cc(C)[n+]2C)(CCC(=O)NCc2c(O)c(O)cc(C)[n+]2C)NC(=O)CCNC(=S)Nc2ccc(C(=O)O)c(-c3c4ccc(=[N+](C)C)cc-4oc4cc(N(C)C)ccc34)c2)[n+]1C,inhibition,Mycobacterium avium [1],Active
same,inhibition,Mycobacterium avium [2],Active
